Test results reported in BindingDB's records for patent US10100058 (Gilead Sciences, 2018).
pIC50: −log10 of the molar value.

Target: Calcium/calmodulin-dependent protein kinase type II subunit delta (Homo sapiens, UniProt Q13557)
Test: CaMKII delta Biochemical Assay
Description: The biochemical activity of recombinant CaMKIIδ was measured by monitoring the phosphorylation of a target peptide using Homogenous Time Resolved Fluorescence (HTRF) technology from CisBio Bioassays.

Sequence of Calcium/calmodulin-dependent protein kinase type II subunit delta (Q13557 whole entry): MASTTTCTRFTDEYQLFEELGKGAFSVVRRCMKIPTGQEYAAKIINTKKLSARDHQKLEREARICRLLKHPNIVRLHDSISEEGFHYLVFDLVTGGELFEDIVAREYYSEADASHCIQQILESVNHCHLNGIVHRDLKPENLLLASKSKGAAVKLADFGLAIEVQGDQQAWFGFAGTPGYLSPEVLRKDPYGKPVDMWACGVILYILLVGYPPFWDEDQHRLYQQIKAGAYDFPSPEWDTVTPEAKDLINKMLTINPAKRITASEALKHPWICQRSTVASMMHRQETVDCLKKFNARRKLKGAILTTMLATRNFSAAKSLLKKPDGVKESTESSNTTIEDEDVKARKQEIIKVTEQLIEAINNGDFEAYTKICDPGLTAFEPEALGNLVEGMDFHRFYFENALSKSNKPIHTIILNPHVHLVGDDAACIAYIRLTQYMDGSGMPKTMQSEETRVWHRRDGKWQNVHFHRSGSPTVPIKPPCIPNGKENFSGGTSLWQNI

SMILES	pIC50
CCN(CC)[C@@H](CO)CNC(=O)c1ccnc(-c2cnn3ccc(-c4ccccc4)nc23)c1 [US10100058, Example 58]	8.47
CCN(CC)[C@@H](C)CNC(=O)c1cc(-c2cnn3ccc(-c4cccs4)nc23)nc(N2CC(NS(=O)(=O)Cc3ccon3)C2)c1 [US10100058, Example 175]	9.62
COC1CN(c2cc(C(=O)N3CC[C@H](N)C3)cc(-c3cnn4ccc(-c5cccs5)nc34)n2)C1 [US10100058, Example 327]	8.03

The remaining compounds from weak to strong by pIC50, led by results:

pIC50	SMILES
7.00	CC(C)(N)CNC(=O)c1ccnc(-c2cnn3ccc(-c4ccccc4)nc23)c1 [US10100058, Example 64]
8.04	CN(CCn1ccnc1)c1cc(C(=O)N2CC3CCC(C2)NC3)cc(-c2cnn3ccc(-c4cccs4)nc23)n1 (stereo not drawn) [US10100058, Example 321]
8.06	CCC(N)CNC(=O)c1ccnc(-c2cnn3ccc(-c4cccs4)nc23)c1 (stereo not drawn) [US10100058, Example 25]
9.48	CCN(CC)[C@@H](C)CNC(=O)c1cc(-c2cnn3ccc(-c4cccs4)nc23)nc(N2CC[C@H]2C(=O)NCCO)c1 [US10100058, Example 297]
10.00	CCN(CC)[C@@H](C)CNC(=O)c1cc(OCCN(C)C)nc(-c2cnn3ccc(-c4cccs4)nc23)c1 [US10100058, Example 347]
